Assays:
Format in all cases: cell-based
[1] = tested on: A375; test: Alamar Blue cell viability assay, A375; conditions: Homo sapiens, A-375; A375, Melanoma
Procedure: (§1) The effect of Compound I on cell viability was assessed by Alamar Blue assay of metabolic activity in various cancer cell lines.

[2] = tested on: A549; test: Alamar Blue cell viability assay, A549; conditions: Homo sapiens; A549, Lung
Procedure: as §1

[3] = tested on: MIA PaCa-2; test: Alamar Blue cell viability assay, MIA PaCa-2; conditions: Homo sapiens; MIA PaCa-2, Pancreatic
Procedure: as §1

[4] = tested on: MDA-MB-231; test: Alamar Blue cell viability assay, MDA-MB-231; conditions: Homo sapiens; MDA-MB-231, Breast
Procedure: as §1

[5] = tested on: NCI-H1299; test: Alamar Blue cell viability assay, NCI-H1299; conditions: Homo sapiens; NCI-H1299, Lung
Procedure: as §1

[6] = tested on: HL60; test: Alamar Blue cell viability assay, HL60; conditions: Homo sapiens, HL-60; HL60, Leukemia
Procedure: as §1

[7] = tested on: SR; test: Alamar Blue cell viability assay, SR; conditions: Homo sapiens, Leukemia
Procedure: as §1

[8] = tested on: Jurkat; test: Alamar Blue cell viability assay, Jurkat; conditions: Homo sapiens, Leukemia
Procedure: as §1

[9] = tested on: BRCA12 deficient cells; test: Toxicity against BRCA12 deficient cells; conditions: cell lines of different genetic backgrounds (colon, breast and ovary), mouse and human

- EC50 [1]: 0.058 µM
- EC50 [2]: 4.9 µM
- EC50 [3]: 0.074 µM
- EC50 [4]: 0.083 µM
- EC50 [5]: 0.055 µM
- EC50 [6]: 0.083 µM
- EC50 [8]: 0.064 µM
SMILES: Cc1cnc(CNC(=O)c2c(=O)c3ccc(N4CCCN(C)CC4)nc3n3c2sc2ccccc23)cn1 [Compound I, 2-(4-Methyl-[1,4]diazepan-1-yl)-5-oxo-5H-7-thia-1,11b-diaza-benzo[c]fluorene-6-carboxylic acid (5-methyl-pyrazin-2-ylmethyl)-amide]
- EC50 [7]: 0.005 µM
- Toxicity against BRCA12 deficient cells [9]: specific toxicity
